In assay [1] the test system is human melanoma cell line A375P. Kind of assay: Lamellipodia formation inhibition (confocal microscope), A375P. The format is cell-based. To be noted: A375-p, 6 hours, FIG. 9. As for the experimental part:
(§1) A human colon cancer cell line DLD-1, a human pancreatic cancer cell line AsPc-1, a human melanoma cell line A375P, and normal cells MCF10A were each cultured to 1×10^5 cell density on a 35 mm high-m dish plate (ibid GmbH). The cells attached to the plate were washed with phosphate buffered saline (PBS) and then treated with DMSO or CG-618 dissolved in DMSO for 6 hours. After removing the cell culture medium from the plate, the plate was washed two times with PBS and treated with 4% paraformaldehyde dissolved in PBS at room temperature for 10 minutes to immobilize the cells. The plate was washed with PBS once and then treated with 0.2% Triton X-100 at room temperature for 10 minutes to enhance cell permeability. The plate was washed with PBS and treated with 1% BSA dissolved in PBS at room temperature for 1 hour to block non-specific bonds. In order to check the distribution in cells of filament actin (F-actin), phalloidin bound with Alexa Fluor 488, which was specifically bound with F-actin, was treated at room temperature for 15 minutes. The plate was washed with PBS three times and then treated with 2 mg/mL 4′,6′-diamidino-2-phenylindole (DAPAI) dissolved in PBS for two minutes at room temperature to dye the nucleus. The plate was washed with PBS three times and filled with 1 mL PBS. […] The obtained images were analyzed by an analysis program (LSM Version 3.2 software).

The subject of assay [2] is normal cell line MCF-10A. In words: Real-time single cell migration imaging (HoloMonitor M4), MCF-10A. The class given is cell-based. The conditions noted are these: 24 hours, FIG. 7. As to the method:
An effect of a drug on migration of single cells was confirmed using HoloMonitor M4 (Phase Holographic Imaging), real-time cell migration imaging and analysis equipment. All experiments were performed within a 37° C. cell incubator to analyze cell migration while cells were alive for a long time. To prevent water vapor generated during cell imaging for a long time from obstructing the imaging, the experiment was conducted by dividing cells in an m-slide microcopy chamber (Ibidi). In order to analyze migration of single cells, cells (2.5×10^5 cells/mL) to be analyzed were divided to the m-slide microscopy chamber by 0.2 mL and cultured for more than 12 hours. The cells were sufficiently attached to its original shape and then treated with the drug, and a position to be analyzed was specified, and then the cell migration was measured in real time.
The cell migration was measured for 24 hours at five-minute intervals, and migration of 25 cells per group was analyzed. Using the HoloMonitor tracking software, a total distance migrated by the cells during the time measured, a linear distance from the starting point to the arrival point, a rate of migration, and a direction were quantitatively analyzed, and the migration of single cells was visualized with a Wind-Rose plot (FIG. 7).

Assay [3] deals with human pancreatic cancer cell line AsPc-1. In words: Lamellipodia formation inhibition (confocal microscope), AsPc-1. The format is cell-based. To be noted: AsPc-1, 6 hours, FIG. 9. As to the method:
as §1

Assay [4] relates to pancreatic cancer cells CFPAC-1. In words: Trans-well cancer cell migration inhibition, CFPAC-1. The format is cell-based. The conditions noted are these: CFPAC-1, concentration not given, FIG. 3. As to the method:
In order to analyze cancer cell migration inhibitory activity of CG-608, CG-609 or CG-618 prepared in Examples 1, 2, or 9, cell migration inhibitory activity was measured using a trans-well by targeting a colon cancer cell line DLD-1 (ATCC-CCL-221), pancreatic cancer cell lines AsPc-1 (ATCC-CCL-1682). CFPAC-1 (ATCC-CCL-1918). Panc-1 (ATCC-CCL-1469), and Miapaca-2 (ATCC-CCL-1420), a skin cancer cell line A375-P (ATCC-CCL-3224), lung cancer cell lines HCC-827 (ATCC-CCL-2868), A549 (ATCC-CCL-185), and NCI-H460 (ATCC-CCL-177), a prostate cancer cell line DU145 (ATCC-HTB-81), a stomach cancer cell line NuGC-3 (JCRB0822), and an ovarian cancer cell line SKOV-3 (ATCC-HTB-77).
First, the number of DLD-1 cells was measured using a hemocytometer in an RPMI medium without FBS. […] After culture, […] of crystal violet (5 mg/mL of 20% […] was added to each well of the 24-well plate and the trans-well was dyed at room temperature for 30 minutes. The dyed trans-well was washed with PBS and non-migrated cells were wiped off with cotton swabs. The prepared sample was photographed with an inverted microscope mounted with a digital camera (TE 300, Nikon. Japan) and then the number of migrated cells was counted. The degree of inhibiting cell migration was calculated by Equation 1 for a group treated with the sample compared to a control group (DMSO). […]

The subject of assay [5] is human-derived colon cancer cell line (HCT-116 luciferase). In words: Colon cancer liver metastasis implant model in nude mouse (live animal imaging). The conditions noted are these: for Cancer metastasis inhibitory effect by whole image data: 20 times, five times a week. The format is in vivo. The text has this: In this experiment, a human-derived colon cancer cell line (HCT-116 luciferase) was implanted to the spleen and then the spleen was removed and sutured after four days. In a colon cancer liver metastasis implant model, cancer metastasis inhibitory activity by oral administration of CG-609 was verified using a live animal imaging system. As the animal, an Athymic-NCr NCr-nu SPF 5-week-old nude mouse supplied from Koatech (Pyeongtaek-si, Gyeonggi-do) was used. By adjusting a concentration of cancer cells to 2×10^6 cells/mL, the cell culture solution was injected directly into the spleen using a syringe (31 G needle, ½ cc) by 30 μL per mouse. The drug CG-609 was dissolved to a concentration of 5 mg/kg or 10 mg/kg using 0.5% Tween80 and then orally administered to the mouse in an amount of 10 mL/kg total 20 times on a schedule of five times a week.
HCT-116 luciferase cells were implanted, drug administration started from the day after the cancer cell was implanted, and the cells were imaged a total of seven times until the 25th day, the end of the experiment. During imaging, 50 μL of […] was intraperitoneally administered into each side of the animal's abdomen at a concentration of luciferin 15 mg/mL, and then photographed using an optical imaging system (IVIS-spectrum CT, PerkinElmer). On the final day of the test, the mouse was imaged and then […], and major organs (liver, kidney, and colon) were extracted to be imaged, and then the degree of image signal was measured. The values of all measurement items were tested for statistical significance by comparing a solvent control and a drug administration group using a t-TEST statistical method (FIGS. 10A and 10B).

Consider `CC1CCCCN1C(C)COc1ccccc1Cc1ccccc1` (racemic) [CG-618, 1-(1-(2-benzylphenoxy)propan-2-yl)-2-methylpiperidine], for which the Formation of lamellipodia result in assay [1] and in assay [3] was “inhibits formation of lamellipodia” each time. Besides, the “Migration of single normal cells (real-time imaging)” value in assay [2] was “increased”.
With `C[C@H](COc1ccccc1Cc1ccccc1)N1CCCC[C@@H]1C` [CG-609, (S)-1-((R)-1-(2-benzylphenoxy)propan-2-yl)-2-methylpiperidine], in assay [4], the “Inhibition of cell migration” value is not below 50%. Also, in assay [5] (5 mg/kg oral), the “Colon metastasis inhibitory effect” value stood at 76.9%, the “Liver metastasis inhibitory effect” value stood at 47.7%, the “Renal metastasis inhibitory effect” value is given as 72.4% and the “Cancer metastasis inhibitory effect by whole image data” value is 77.9%. For the same molecule, the “Inhibition of cancer metastasis in animal experiment” value in assay [5] (5 mg/kg, 10 times lower dose than benproperine (50 mg/kg), FIGS. 10A and 10B) is not below 50%. Also, in assay [5] (10 mg/kg oral), the “Colon metastasis inhibitory effect” value is listed as 85.6%, the “Liver metastasis inhibitory effect” value stood at 58.6%, the “Renal metastasis inhibitory effect” value was found to be 76.1% and the “Cancer metastasis inhibitory effect by whole image data” value is 80.1%.

(Values after US11945779B2, “Inhibitors of cancer metastasis through inhibiting migration and invasion of cancer cells” (VSpharmtech, priority 2018, dated 2024).)
